Read-outs that look alike come from different tables or passages of the source.
Legend:
Aβ40, Aβ42 [1] = tested on: Aβ40, Aβ42; set-up: species or system TgCRND8 mouse; conditions: mouse, in vivo, po, 100 mg/kg
Aβ40 [2] = assay: Acute Aβ lowering in nontransgenic B6C3F1 mice; type: in vivo, nontransgenic B6C3F1 mouse; conditions: 3 hr
Aβ40, Aβ42 [3] = conditions: TgCRND8, single oral 30 mg/kg, 8 hr after dose
Source text: (§1) Plasma and cortex Aβ42 were quantified in select TgCRND8 studies using biotin-4G8 and S-tag G2-11 and 4G8 antibodies.

Aβ40, Aβ42 [4] = tested on: Aβ40, Aβ42; set-up: species or system TgCRND8 mouse; conditions: mouse, in vivo
Source text: as §1

Aβ40 [5] = assay: Subchronic (11 days q.d. or 6 days b.i.d.) Aβ lowering in nontransgenic mice; type: in vivo, nontransgenic B6C3F1 mouse
[6] = tested on: HES-1, mATH1, KLF4 gene expression; assay: Notch pathway biomarker gene expression in jejunum (RT-PCR); type: in vivo, nontransgenic B6C3F1 mouse; conditions: nontransgenic mice
Source text: The jejunum was harvested, rinsed, and flash frozen in liquid nitrogen until later analyses. RNA was isolated from tissues using the Trizol reagent (Molecular Research Center, Inc.) followed by purification over an RNAeasy column (Qiagen).
RNA was purified over an RNAeasy column.

Aβ40 [7] = conditions: rat, single oral dose 10-100 mg/kg, 3 hr
[8] = tested on: Aβ; Notch-related toxicity; set-up: method as in PMID 21190552; conditions: 7 days of b.i.d. dosing, cited from earlier work

Row | Structure (SMILES) | cortex Aβ40 reduction (Aβ40, Aβ42 [1]) | cortex Aβ42 reduction (Aβ40, Aβ42 [1]) | cortex Aβ lowering (Aβ40 [2]; single oral 100 mg/kg) | cortex Aβ lowering (Aβ40 [2]; single oral 10, 30 and 100 mg/kg, P < 0.005) | cortex Aβ40 lowering (Aβ40, Aβ42 [3]) | cortex Aβ42 lowering (Aβ40, Aβ42 [3]) | cortex Aβ40 reduction (Aβ40, Aβ42 [4]) | cortex Aβ42 reduction (Aβ40, Aβ42 [4]) | cortex Aβ reduction (Aβ40, Aβ42 [4]) | reduction of Aβ at partial inhibition dose (Aβ40, Aβ42 [4]) | dose giving 50% lowering of cortical Aβ (Aβ40 [5]; nontransgenic mice, 11 days q.d. and 6 days b.i.d.) | increase in Aβ in the cortex (Aβ40 [5]; nontransgenic mice, 11 days q.d. and 6 days b.i.d., 3-100 mg/kg) | continuous inhibition of Aβ with q.d. dosing (Aβ40 [5]; q.d. dosing (100 mg/kg), without Notch-related side effects) | mATH1 expression in the jejunum ([6]; 100 mg/kg 6 days b.i.d., P < 0.04) | HES-1 expression in the jejunum ([6]; 100 mg/kg, 11 days q.d. and 6 days b.i.d., P < 0.02) | KLF4 expression in the jejunum ([6]; 30 and 100 mg/kg 6 days b.i.d., P < 0.04) | mATH1 and KLF expression in the jejunum ([6]; 11 day q.d. groups) | cortex Aβ40 reduction (plateau) (Aβ40 [7]) | lowering of Aβ ([8]; sustained but incomplete) | Notch-related toxicity (thymus weight, goblet cell hyperplasia in the ileum) [8]
1 | O=C(OC1([C@H]2CCC[C@@H](c3cc(F)cc(F)c3)N2S(=O)(=O)c2ccc(Cl)cc2)CC1)N1CCN(CCO)CC1 (relative stereo) [SCH 697466, 1-[cis-1-[(4-chlorophenyl)sulfonyl]-6-(3,5-difluorophenyl)-2-piperidinyl]cyclopropyl 4-(2-hydroxyethyl)-1-piperazinecarboxylate] | 55% | 47% | Near complete lowering | significant lowering | 82% | 42% | 98% | 66% | 48% | ~ 50% | around 30 mg/kg | no evidence of an increase | > 80% | increased expression | significant decreases | increased expression | unchanged | about 60% | – | –
2 | O=S(=O)(c1ccc(Cl)cc1)N1[C@@H]2CCC[C@H]1c1cn[nH]c1C2 [ELN 475516] | – | – | – | – | – | – | – | – | – | – | – | – | – | – | – | – | – | – | ~ 74% | no evidence of Notch-related toxicity

From PMC3612465 (International Journal of Alzheimer's Disease, 2013)
